According to ChEMBL document CHEMBL4507320, “Data for DCP probe NVS-MALT1” (2021):

What was measured:
[1] = biological target: Tyrosine-protein kinase ITK/TSK (Homo sapiens) (UniProt Q08881); settings: Compound concentration 1000.0 nM
[2] = biological target: Fibroblast growth factor receptor 4 (Homo sapiens) (UniProt P22455); settings: Compound concentration 1000.0 nM
[3] = biological target: Phosphatidylinositol 4-phosphate 5-kinase type-1 gamma (Homo sapiens) (UniProt O60331); settings: Compound concentration 1000.0 nM
[4] = system: Serine/threonine-protein kinase B-raf (Homo sapiens), P15056 [V600E]; settings: Compound concentration 1000.0 nM
[5] = biological target: Ephrin type-B receptor 1 (Homo sapiens) (UniProt P54762); settings: Compound concentration 1000.0 nM
[6] = biological target: Cyclin-dependent kinase-like 2 (Homo sapiens) (UniProt Q92772); settings: Compound concentration 1000.0 nM
[7] = system: Receptor-type tyrosine-protein kinase FLT3 (Homo sapiens), P36888 [K663Q]; settings: Compound concentration 1000.0 nM
[8] = biological target: Leucine-rich repeat serine/threonine-protein kinase 2 (Homo sapiens) (UniProt Q5S007); settings: Compound concentration 1000.0 nM
[9] = biological target: Tyrosine-protein kinase receptor UFO (Homo sapiens) (UniProt P30530); settings: Compound concentration 1000.0 nM
[10] = biological target: Beta-adrenergic receptor kinase 1 (Homo sapiens) (UniProt P25098); settings: Compound concentration 1000.0 nM
[11] = biological target: Mu-type opioid receptor (Homo sapiens) (UniProt P35372); settings: Compound concentration 10.0 uM
[12] = biological target: Serine/threonine-protein kinase WNK4 (Homo sapiens) (UniProt Q96J92); settings: Compound concentration 1000.0 nM
[13] = biological target: STE20/SPS1-related proline-alanine-rich protein kinase (Homo sapiens) (UniProt Q9UEW8); settings: Compound concentration 1000.0 nM
[14] = biological target: Phosphatidylinositol 3-kinase C2 domain-containing subunit gamma (Homo sapiens) (UniProt O75747); settings: Compound concentration 1000.0 nM
[15] = biological target: Mitogen-activated protein kinase 9 (Homo sapiens) (UniProt P45984); settings: Compound concentration 1000.0 nM
[16] = biological target: Receptor tyrosine-protein kinase erbB-4 (Homo sapiens) (UniProt Q15303); settings: Compound concentration 1000.0 nM
[17] = biological target: 5-hydroxytryptamine receptor 2B (Homo sapiens) (UniProt P41595); settings: Compound concentration 10.0 uM
[18] = biological target: Cyclin-dependent kinase 18 (Homo sapiens) (UniProt Q07002); settings: Compound concentration 1000.0 nM
[19] = biological target: Mast/stem cell growth factor receptor Kit (Homo sapiens) (UniProt P10721); settings: Compound concentration 1000.0 nM
[20] = biological target: Casein kinase I isoform gamma-2 (Homo sapiens) (UniProt P78368); settings: Compound concentration 1000.0 nM
[21] = biological target: Tyrosine-protein kinase HCK (Homo sapiens) (UniProt P08631); settings: Compound concentration 1000.0 nM
[22] = biological target: Proto-oncogene tyrosine-protein kinase ROS (Homo sapiens) (UniProt P08922); settings: Compound concentration 1000.0 nM
[23] = biological target: Histamine H2 receptor (Homo sapiens) (UniProt P25021); settings: Compound concentration 10.0 uM
[24] = biological target: Serine/threonine-protein kinase TNNI3K (Homo sapiens) (UniProt Q59H18); settings: Compound concentration 1000.0 nM
[25] = biological target: Serine/threonine-protein kinase 4 (Homo sapiens) (UniProt Q13043); settings: Compound concentration 1000.0 nM
[26] = biological target: Cyclin-dependent kinase 4 (Homo sapiens) (UniProt P11802); settings: Compound concentration 1000.0 nM
[27] = biological target: Activin receptor type-1 (Homo sapiens) (UniProt Q04771); settings: Compound concentration 1000.0 nM
[28] = biological target: Tyrosine-protein kinase JAK2 (Homo sapiens) (UniProt O60674); settings: Compound concentration 1000.0 nM
[29] = biological target: Serine/threonine-protein kinase ULK1 (Homo sapiens) (UniProt O75385); settings: Compound concentration 1000.0 nM
[30] = biological target: Serine/threonine-protein kinase 38 (Homo sapiens) (UniProt Q15208); settings: Compound concentration 1000.0 nM
[31] = biological target: Hepatocyte growth factor receptor (Homo sapiens) (UniProt P08581); settings: Compound concentration 1000.0 nM
[32] = biological target: Ribosomal protein S6 kinase alpha-2 (Homo sapiens) (UniProt Q15349); settings: Compound concentration 1000.0 nM
[33] = biological target: Serine/threonine-protein kinase Nek1 (Homo sapiens) (UniProt Q96PY6); settings: Compound concentration 1000.0 nM
[34] = biological target: TRAF2 and NCK-interacting protein kinase (Homo sapiens) (UniProt Q9UKE5); settings: Compound concentration 1000.0 nM
[35] = biological target: Ephrin type-A receptor 6 (Homo sapiens) (UniProt Q9UF33); settings: Compound concentration 1000.0 nM
[36] = biological target: Serine/threonine-protein kinase tousled-like 1 (Homo sapiens) (UniProt Q9UKI8); settings: Compound concentration 1000.0 nM
[37] = biological target: Serine/threonine-protein kinase PLK1 (Homo sapiens) (UniProt P53350); settings: Compound concentration 1000.0 nM
[38] = system: Receptor-type tyrosine-protein kinase FLT3 (Homo sapiens), P36888 [UNDEFINED MUTATION]; settings: Compound concentration 1000.0 nM
[39] = biological target: Phosphorylase b kinase regulatory subunit alpha, liver isoform (Homo sapiens) (UniProt P46019); settings: Compound concentration 1000.0 nM
[40] = biological target: Serine/threonine-protein kinase 33 (Homo sapiens) (UniProt Q9BYT3); settings: Compound concentration 1000.0 nM
[41] = biological target: Phosphatidylinositol 5-phosphate 4-kinase type-2 beta (Homo sapiens) (UniProt P78356); settings: Compound concentration 1000.0 nM
[42] = biological target: Serine/threonine-protein kinase TAO3 (Homo sapiens) (UniProt Q9H2K8); settings: Compound concentration 1000.0 nM
[43] = biological target: Serine/threonine-protein kinase MAK (Homo sapiens) (UniProt P20794); settings: Compound concentration 1000.0 nM
[44] = biological target: Tyrosine-protein kinase FRK (Homo sapiens) (UniProt P42685); settings: Compound concentration 1000.0 nM
[45] = biological target: cAMP-dependent protein kinase catalytic subunit PRKX (Homo sapiens) (UniProt P51817); settings: Compound concentration 1000.0 nM

Chain of Mitogen-activated protein kinase 9 (Homo sapiens) (P45984 whole entry, looked up): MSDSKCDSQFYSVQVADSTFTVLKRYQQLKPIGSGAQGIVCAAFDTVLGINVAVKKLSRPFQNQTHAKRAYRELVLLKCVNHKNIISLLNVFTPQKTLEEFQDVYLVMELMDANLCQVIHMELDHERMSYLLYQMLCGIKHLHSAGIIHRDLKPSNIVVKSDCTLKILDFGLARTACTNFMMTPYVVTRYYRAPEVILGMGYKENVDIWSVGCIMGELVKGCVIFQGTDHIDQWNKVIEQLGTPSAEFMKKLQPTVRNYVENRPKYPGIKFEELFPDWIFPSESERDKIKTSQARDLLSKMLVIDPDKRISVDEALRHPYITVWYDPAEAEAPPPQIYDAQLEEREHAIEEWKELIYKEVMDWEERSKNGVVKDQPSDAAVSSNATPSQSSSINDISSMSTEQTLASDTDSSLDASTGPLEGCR
Chain of Cyclin-dependent kinase 4 (Homo sapiens) (P11802 whole entry): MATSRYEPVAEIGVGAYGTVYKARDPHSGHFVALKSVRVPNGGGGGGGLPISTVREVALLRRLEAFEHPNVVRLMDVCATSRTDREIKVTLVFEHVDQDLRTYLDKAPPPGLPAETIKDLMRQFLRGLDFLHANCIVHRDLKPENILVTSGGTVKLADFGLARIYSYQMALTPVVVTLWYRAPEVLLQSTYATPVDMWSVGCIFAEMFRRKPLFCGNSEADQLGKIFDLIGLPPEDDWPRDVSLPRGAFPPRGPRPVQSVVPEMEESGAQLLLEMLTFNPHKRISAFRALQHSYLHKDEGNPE
Chain of Phosphatidylinositol 3-kinase C2 domain-containing subunit gamma (Homo sapiens) (O75747 whole entry, the tested form may be a part): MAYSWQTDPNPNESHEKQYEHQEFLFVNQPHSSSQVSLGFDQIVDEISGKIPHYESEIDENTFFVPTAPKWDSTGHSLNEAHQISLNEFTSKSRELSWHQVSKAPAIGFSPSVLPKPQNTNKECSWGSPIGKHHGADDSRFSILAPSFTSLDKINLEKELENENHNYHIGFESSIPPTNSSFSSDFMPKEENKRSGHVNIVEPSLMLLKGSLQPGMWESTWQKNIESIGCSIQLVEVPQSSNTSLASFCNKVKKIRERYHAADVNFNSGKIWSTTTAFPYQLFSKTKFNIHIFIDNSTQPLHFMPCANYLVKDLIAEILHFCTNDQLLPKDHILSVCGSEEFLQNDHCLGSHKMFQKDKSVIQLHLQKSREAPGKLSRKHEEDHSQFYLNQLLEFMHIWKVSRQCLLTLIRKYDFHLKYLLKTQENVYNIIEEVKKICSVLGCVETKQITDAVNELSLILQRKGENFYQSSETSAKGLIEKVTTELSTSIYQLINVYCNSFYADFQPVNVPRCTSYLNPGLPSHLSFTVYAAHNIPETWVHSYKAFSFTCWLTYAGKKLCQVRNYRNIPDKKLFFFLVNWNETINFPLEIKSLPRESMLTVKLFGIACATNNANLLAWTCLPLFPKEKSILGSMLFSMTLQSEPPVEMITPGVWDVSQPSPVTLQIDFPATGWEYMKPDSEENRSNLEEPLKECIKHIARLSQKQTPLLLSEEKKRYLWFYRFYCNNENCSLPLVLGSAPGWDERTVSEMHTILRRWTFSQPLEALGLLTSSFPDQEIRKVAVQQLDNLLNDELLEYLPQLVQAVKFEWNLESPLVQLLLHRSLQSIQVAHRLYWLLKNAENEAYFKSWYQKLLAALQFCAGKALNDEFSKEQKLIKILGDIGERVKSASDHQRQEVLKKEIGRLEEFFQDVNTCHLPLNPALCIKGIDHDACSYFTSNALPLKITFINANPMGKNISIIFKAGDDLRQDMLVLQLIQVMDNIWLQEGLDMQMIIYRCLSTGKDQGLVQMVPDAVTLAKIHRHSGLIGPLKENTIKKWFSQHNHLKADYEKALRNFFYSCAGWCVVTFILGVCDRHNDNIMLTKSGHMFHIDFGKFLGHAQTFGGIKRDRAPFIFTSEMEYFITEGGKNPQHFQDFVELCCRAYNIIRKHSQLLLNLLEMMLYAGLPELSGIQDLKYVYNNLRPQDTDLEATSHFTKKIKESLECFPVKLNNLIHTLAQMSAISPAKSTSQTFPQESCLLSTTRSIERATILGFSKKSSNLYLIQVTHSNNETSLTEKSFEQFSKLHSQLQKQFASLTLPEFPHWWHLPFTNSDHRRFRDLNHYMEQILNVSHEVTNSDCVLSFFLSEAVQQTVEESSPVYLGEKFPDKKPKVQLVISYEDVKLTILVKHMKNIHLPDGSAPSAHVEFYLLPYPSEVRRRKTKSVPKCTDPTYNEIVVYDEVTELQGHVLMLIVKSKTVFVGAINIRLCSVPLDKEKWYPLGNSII
Chain of Phosphorylase b kinase regulatory subunit alpha, liver isoform (Homo sapiens) (P46019 whole entry, canonical isoform): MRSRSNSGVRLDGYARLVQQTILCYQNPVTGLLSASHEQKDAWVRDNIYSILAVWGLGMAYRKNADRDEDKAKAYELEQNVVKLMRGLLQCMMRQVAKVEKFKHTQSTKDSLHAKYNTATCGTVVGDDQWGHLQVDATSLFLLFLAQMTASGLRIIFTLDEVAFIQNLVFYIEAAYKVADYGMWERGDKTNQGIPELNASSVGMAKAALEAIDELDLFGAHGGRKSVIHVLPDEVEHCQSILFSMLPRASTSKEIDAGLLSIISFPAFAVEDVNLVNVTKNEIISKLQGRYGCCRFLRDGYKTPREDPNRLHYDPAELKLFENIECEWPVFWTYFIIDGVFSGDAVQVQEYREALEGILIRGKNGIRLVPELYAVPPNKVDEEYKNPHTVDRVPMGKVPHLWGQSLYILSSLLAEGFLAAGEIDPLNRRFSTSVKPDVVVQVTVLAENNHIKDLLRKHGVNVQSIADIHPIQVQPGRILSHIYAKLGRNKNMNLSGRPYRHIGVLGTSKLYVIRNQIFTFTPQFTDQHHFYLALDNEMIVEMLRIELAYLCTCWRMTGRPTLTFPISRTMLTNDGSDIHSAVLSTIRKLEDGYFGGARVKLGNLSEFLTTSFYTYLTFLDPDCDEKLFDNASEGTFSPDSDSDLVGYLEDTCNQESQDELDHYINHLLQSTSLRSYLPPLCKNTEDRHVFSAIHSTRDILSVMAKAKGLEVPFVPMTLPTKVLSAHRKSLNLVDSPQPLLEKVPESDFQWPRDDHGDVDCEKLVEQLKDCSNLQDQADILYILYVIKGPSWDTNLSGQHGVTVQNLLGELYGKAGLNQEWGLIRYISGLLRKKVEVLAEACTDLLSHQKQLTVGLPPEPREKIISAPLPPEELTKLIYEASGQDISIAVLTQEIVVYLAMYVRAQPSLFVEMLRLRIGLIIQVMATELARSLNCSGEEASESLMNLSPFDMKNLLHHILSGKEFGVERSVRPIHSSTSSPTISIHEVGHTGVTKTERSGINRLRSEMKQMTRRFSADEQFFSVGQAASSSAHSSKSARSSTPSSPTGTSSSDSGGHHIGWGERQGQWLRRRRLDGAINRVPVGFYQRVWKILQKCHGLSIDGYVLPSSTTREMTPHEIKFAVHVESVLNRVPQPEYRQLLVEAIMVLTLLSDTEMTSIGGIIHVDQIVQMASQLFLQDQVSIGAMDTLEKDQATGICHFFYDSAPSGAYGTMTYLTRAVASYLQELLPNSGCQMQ
Chain of Tyrosine-protein kinase FRK (Homo sapiens) (P42685 whole entry): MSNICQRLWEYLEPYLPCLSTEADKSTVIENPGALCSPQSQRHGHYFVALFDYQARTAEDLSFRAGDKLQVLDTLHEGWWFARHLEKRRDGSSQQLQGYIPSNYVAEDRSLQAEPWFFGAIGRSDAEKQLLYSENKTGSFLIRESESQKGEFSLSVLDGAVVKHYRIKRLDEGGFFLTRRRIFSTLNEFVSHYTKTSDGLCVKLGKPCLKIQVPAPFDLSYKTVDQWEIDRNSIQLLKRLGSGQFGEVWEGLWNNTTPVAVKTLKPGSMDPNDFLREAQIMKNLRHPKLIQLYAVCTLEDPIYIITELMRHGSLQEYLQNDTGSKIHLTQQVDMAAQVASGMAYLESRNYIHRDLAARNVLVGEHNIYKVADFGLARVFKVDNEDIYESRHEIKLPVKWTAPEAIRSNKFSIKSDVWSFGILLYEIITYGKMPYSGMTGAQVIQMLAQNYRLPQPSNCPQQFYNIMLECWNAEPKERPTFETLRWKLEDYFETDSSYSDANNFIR
Chain of Ephrin type-A receptor 6 (Homo sapiens) (Q9UF33 whole entry): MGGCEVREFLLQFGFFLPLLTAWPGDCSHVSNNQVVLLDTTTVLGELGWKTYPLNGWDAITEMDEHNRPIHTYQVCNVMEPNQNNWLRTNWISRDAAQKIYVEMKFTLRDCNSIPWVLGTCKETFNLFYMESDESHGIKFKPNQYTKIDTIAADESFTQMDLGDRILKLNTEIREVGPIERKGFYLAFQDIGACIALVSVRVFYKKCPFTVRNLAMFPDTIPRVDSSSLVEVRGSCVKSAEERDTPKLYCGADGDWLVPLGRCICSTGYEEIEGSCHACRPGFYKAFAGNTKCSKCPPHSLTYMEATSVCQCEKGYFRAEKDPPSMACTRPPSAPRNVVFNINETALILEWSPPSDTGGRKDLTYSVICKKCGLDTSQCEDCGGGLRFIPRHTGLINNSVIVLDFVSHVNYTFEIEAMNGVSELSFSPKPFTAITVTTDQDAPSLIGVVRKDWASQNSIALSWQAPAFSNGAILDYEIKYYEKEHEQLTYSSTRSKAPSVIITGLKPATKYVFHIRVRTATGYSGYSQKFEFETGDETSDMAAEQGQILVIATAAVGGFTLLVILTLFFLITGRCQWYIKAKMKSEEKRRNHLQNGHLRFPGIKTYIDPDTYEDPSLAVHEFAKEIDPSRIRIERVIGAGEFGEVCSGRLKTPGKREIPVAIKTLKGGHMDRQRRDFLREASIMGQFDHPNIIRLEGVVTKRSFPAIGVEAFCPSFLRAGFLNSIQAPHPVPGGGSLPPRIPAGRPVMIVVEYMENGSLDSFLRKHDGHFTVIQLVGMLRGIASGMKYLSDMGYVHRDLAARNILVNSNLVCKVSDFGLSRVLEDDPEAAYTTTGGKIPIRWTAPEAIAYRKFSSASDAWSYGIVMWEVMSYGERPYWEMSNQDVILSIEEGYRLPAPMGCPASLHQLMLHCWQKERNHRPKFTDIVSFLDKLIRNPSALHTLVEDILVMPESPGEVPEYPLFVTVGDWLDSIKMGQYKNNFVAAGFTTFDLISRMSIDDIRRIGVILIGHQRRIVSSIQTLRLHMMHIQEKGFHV

`CO[C@@H](C)c1c(Nc2ccc([C@@H](N(C)C(=O)C3CCS(=O)(=O)CC3)C(F)(F)F)cc2)cnc2cc(Cl)nn12` [NVS-MALT1-C] showed a residual activity [1] of 94%, a residual activity [2] of 92% and a residual activity [3] of 100%. It also gave a residual activity [4] of 85%, a residual activity [5] of 92% and a residual activity [6] of 88%. For the same molecule, the residual activity [7] was 94%, the residual activity [8] was 100% and the residual activity [9] was 77%. The residual activity [10] was 92%, the inhibition [11] was 6.39% and the residual activity [12] was 99%. It also gave a residual activity [13] of 50%, a residual activity [14] of 88% and a residual activity [15] of 76%. The residual activity [16] was 77%, the inhibition [17] was 9.74% and the residual activity [18] was 99%. For the same molecule, the residual activity [19] was 100%, the residual activity [20] was 84% and the residual activity [21] was 100%. For the same molecule, the residual activity [22] was 82%, the inhibition [23] was 5.46% and the residual activity [24] was 91%. The residual activity [25] was 100%, the residual activity [26] was 100% and the residual activity [27] was 85%. The residual activity [28] was 98%, the residual activity [29] was 100% and the residual activity [30] was 88%. For the same molecule, the residual activity [31] was 85%, the residual activity [32] was 100% and the residual activity [33] was 100%. The residual activity [34] was 100%, the residual activity [35] was 100% and the residual activity [36] was 100%. For the same molecule, the residual activity [37] was 87%, the residual activity [38] was 66% and the residual activity [39] was 44%. For the same molecule, the residual activity [40] was 51%, the residual activity [41] was 100% and the residual activity [42] was 100%. It also gave a residual activity [43] of 100%, a residual activity [44] of 91% and a residual activity [45] of 84%.
Molecule `CO[C@@H](C)c1c(Nc2ccc([C@H](N(C)C(=O)C3CCS(=O)(=O)CC3)C(F)(F)F)cc2)cnc2cc(Cl)nn12` [NVS-MALT1] has a residual activity [1] of 88%, a residual activity [2] of 85% and a residual activity [3] of 100%. For the same molecule, the residual activity [4] was 96%, the residual activity [5] was 86% and the residual activity [6] was 90%. For the same molecule, the residual activity [7] was 100%, the residual activity [8] was 100% and the residual activity [9] was 76%. The residual activity [10] was 84%, the inhibition [11] was 6.13% and the residual activity [12] was 99%. It also gave a residual activity [13] of 50%, a residual activity [14] of 88% and a residual activity [15] of 92%. The residual activity [16] was 84%, the inhibition [17] was -3.94% and the residual activity [18] was 93%. The residual activity [19] was 100%, the residual activity [20] was 93% and the residual activity [21] was 100%. The residual activity [22] was 77%, the inhibition [23] was -9.88% and the residual activity [24] was 73%. It also gave a residual activity [25] of 100%, a residual activity [26] of 100% and a residual activity [27] of 94%. The residual activity [28] was 100%, the residual activity [29] was 100% and the residual activity [30] was 83%. It also gave a residual activity [31] of 100%, a residual activity [32] of 100% and a residual activity [33] of 94%. For the same molecule, the residual activity [34] was 100%, the residual activity [35] was 100% and the residual activity [36] was 100%. It also gave a residual activity [37] of 77%, a residual activity [38] of 71% and a residual activity [39] of 96%. The residual activity [40] was 51%, the residual activity [41] was 100% and the residual activity [42] was 100%. The residual activity [43] was 100%, the residual activity [44] was 80% and the residual activity [45] was 88%.
